The source of these data is patent US20260224582A1, “Heterobicyclic amides as inhibitors of CD38” (Cerevance, Inc., priority 2022, published 2026).

The structures appear in SMILES notation.

The target of one experiment is T1, Recombinant human CD38 (Homo sapiens, UniProt P28907).
T1 sequence (P28907 1-300): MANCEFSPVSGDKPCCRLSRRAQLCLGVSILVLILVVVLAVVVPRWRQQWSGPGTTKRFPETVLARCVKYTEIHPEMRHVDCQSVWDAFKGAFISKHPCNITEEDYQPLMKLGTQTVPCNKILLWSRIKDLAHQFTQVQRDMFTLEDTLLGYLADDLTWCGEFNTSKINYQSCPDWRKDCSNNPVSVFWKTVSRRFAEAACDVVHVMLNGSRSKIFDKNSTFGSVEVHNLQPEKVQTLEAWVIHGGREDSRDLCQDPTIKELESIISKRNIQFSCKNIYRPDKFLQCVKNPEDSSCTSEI
Briefly: Human CD38 hydrolase assay (fluorescence-based, ε-NAD substrate). It counts as biochemical. The note with it: recombinant human CD38 0.8 nM, 4 μM ε-NAD, 30 min preincubation at 25° C. An outline of the steps: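 Recombinant human CD38 (0.8 nM) preincubated 30 min at 25 °C with compound in PBS without Ca2+/Mg2+, 0.005% BSA, pH 7.4; reaction started with 4 μM ε-NAD. Fluorescence (ex 300/em 410 nm) change over 10 min converted to percent inhibition against tool-inhibitor controls; IC50 from 10-point half-log curves, four-parameter fit.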

Another experiment concerns the target T2, Recombinant mouse CD38 (Mus musculus, UniProt P56528).
T2 sequence (P56528 1-304): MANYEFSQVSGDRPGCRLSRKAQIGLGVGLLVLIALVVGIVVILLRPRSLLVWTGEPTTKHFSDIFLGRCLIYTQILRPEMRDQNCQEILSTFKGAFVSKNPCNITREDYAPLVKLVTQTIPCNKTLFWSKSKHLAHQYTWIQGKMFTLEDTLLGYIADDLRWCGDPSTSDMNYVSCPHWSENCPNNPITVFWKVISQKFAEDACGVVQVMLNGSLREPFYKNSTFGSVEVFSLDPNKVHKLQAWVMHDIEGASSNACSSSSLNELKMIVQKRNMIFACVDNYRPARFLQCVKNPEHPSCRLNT
Description: Mouse CD38 hydrolase assay (fluorescence-based, ε-NAD substrate). It counts as biochemical. The settings on record: recombinant mouse CD38 0.4 nM, 12 μM ε-NAD, 30 min preincubation at 25° C. An outline of the steps: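 Recombinant mouse CD38 (0.4 nM) preincubated with compound 30 min at 25° C in PBS without Ca/Mg, 0.005% BSA, pH 7.4, then 12 μM ε-NAD added. Fluorescence (ex 300/em 410 nm) read at 0 and 6 min, difference used. IC50 from 10-point half-log curve, four-parameter fit, normalised to tool-inhibitor low control.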

For the compound `O=C(N[C@H]1CC[C@H](NCC(F)(F)F)CC1)c1cn2ccnc2c(-n2ccnc2)n1` [Example 19, 8-(1H-imidazol-1-yl)-N-((1r,4r)-4-((2,2,2-trifluoroethyl)amino)cyclohexyl) imidazo[1,2-a]pyrazine-6-carboxamide], the IC50 on Recombinant human CD38 and at Recombinant mouse CD38 was no more than 40 nM throughout.

As for `O=C(N[C@H]1CC[C@H](N2CC[C@@H](F)C2)CC1)c1nc(-n2ccnc2)nn2cccc12` [Example 14, N-((1R,4r)-4-((R)-3-fluoropyrrolidin-1-yl)cyclohexyl)-2-(1H-imidazol-1-yl)pyrrolo[2,1-f][1,2,4]triazine-4-carboxamide], the IC50 on Recombinant human CD38 and on Recombinant mouse CD38 was no more than 40 nM throughout.

Consider `O=C(N[C@H]1CC[C@H](NCC(F)(F)F)CC1)c1cn2ncnc2c(-n2ccnc2)n1` [Example 20, 8-(1H-imidazol-1-yl)-N-((1r,4r)-4-((2,2,2-trifluoroethyl)amino)cyclohexyl)-[1,2,4]triazolo[1,5-a]pyrazine-6-carboxamide], for which the IC50 on Recombinant human CD38 and on Recombinant mouse CD38 was no more than 40 nM throughout.

As to `O=C(N[C@H]1CC[C@H](N2CCC(F)(F)C2)CC1)c1nc(-n2ccnc2)nn2cccc12` [Example 12, N-((1r,4r)-4-(3,3-difluoropyrrolidin-1-yl)cyclohexyl)-2-(1H-imidazol-1-yl)pyrrolo[2,1-f][1,2,4]triazine-4-carboxamide], the IC50 at Recombinant human CD38 and on Recombinant mouse CD38 was no more than 40 nM each time.

With `O=C(N[C@H]1CC[C@H](N2CCC(F)(F)C2)CC1)c1cn2ncnc2c(-n2ccnc2)n1` [Example 48, N-((1r,4r)-4-(3,3-difluoropyrrolidin-1-yl)cyclohexyl)-8-(1H-imidazol-1-yl)-[1,2,4]triazolo[1,5-a]pyrazine-6-carboxamide], the IC50 (in general, the concentration that inhibits the measured activity by half) on Recombinant human CD38 was no more than 100 nM; on Recombinant mouse CD38, no more than 40 nM.

On to `O=C(N[C@H]1CC[C@H](N2CC(F)(F)C2)CC1)c1cn2ncnc2c(-n2ccnc2)n1` [Example 45, N-((1r,4r)-4-(3,3-difluoroazetidin-1-yl)cyclohexyl)-8-(1H-imidazol-1-yl)-[1,2,4]triazolo[1,5-a]pyrazine-6-carboxamide], for which the IC50 at Recombinant human CD38 and on Recombinant mouse CD38 was no more than 40 nM each time.

As to `O=C(N[C@H]1CC[C@H](NCC(F)(F)F)CC1)c1nc(-n2ccnc2)nn2cccc12` [Example 29, 2-(1H-imidazol-1-yl)-N-((1r,4r)-4-((2,2,2-trifluoroethyl)amino)cyclohexyl)pyrrolo[2,1-f][1,2,4]triazine-4-carboxamide], the IC50 on Recombinant human CD38 and on Recombinant mouse CD38 was no more than 40 nM each time.

As to `O=C(N[C@H]1CC[C@H](NCC(F)(F)F)CC1)c1cn2nccc2c(-n2ccnc2)n1` [Example 21, 4-(1H-imidazol-1-yl)-N-((1r,4r)-4-((2,2,2-trifluoroethyl)amino)cyclohexyl)pyrazolo[1,5-a]pyrazine-6-carboxamide], the IC50 on Recombinant human CD38 and at Recombinant mouse CD38 was no more than 40 nM throughout.

`O=C(N[C@H]1CC[C@H](N2CC[C@H](F)C2)CC1)c1nc(-n2ccnc2)nn2cccc12` [Example 13, N-((1S,4r)-4-((S)-3-fluoropyrrolidin-1-yl)cyclohexyl)-2-(1H-imidazol-1-yl)pyrrolo[2,1-f][1,2,4]triazine-4-carboxamide]: the IC50 at Recombinant human CD38 and at Recombinant mouse CD38 was no more than 40 nM in each case.

Consider `O=C(N[C@H]1CC[C@H](NCC(F)(F)F)CC1)c1nc(-n2ccnc2)nc2ncccc12` [Example 4, 2-(1H-imidazol-1-yl)-N-((1r,4r)-4-((2,2,2-trifluoroethyl)amino)cyclohexyl)pyrido[2,3-d]pyrimidine-4-carboxamide], for which the IC50 at Recombinant human CD38 and at Recombinant mouse CD38 was no more than 40 nM throughout.

Consider `O=C(N[C@H]1CC[C@H](N2CCC(F)(F)C2)CC1)c1cn2ccnc2c(-n2ccnc2)n1` [Example 41, N-((1r,4r)-4-(3,3-difluoropyrrolidin-1-yl)cyclohexyl)-8-(1H-imidazol-1-yl) imidazo[1,2-a]pyrazine-6-carboxamide], for which the IC50 at Recombinant human CD38 is no more than 100 nM; at Recombinant mouse CD38 it was no more than 40 nM.
